What was measured:
Thoracic aorta = experiment: Vasodilatory activity in Wistar rat thoracic aortic rings assessed as inhibition of noradrenaline-induced contraction; assay type: functional, tissue-based
HCT-8 = experiment: Cytotoxicity against human HCT8 cells; assay type: functional, cell-based
HL-60 [1] = experiment: Cytotoxicity against human HL60 cells; assay type: functional, cell-based
OVCAR-8 = experiment: Cytotoxicity against human OVCAR8 cells; assay type: functional, cell-based
[2] = Half life in patient with solid tumor at 230 mg/m2, iv treated for 30 mins by HPLC-MS analysis; assay type: ADME, organism-based; conditions: human, in vivo
[3] = Stability in rat plasma assessed as parent compound remaining at 100 uM after 10 hrs by LC-MS analysis; assay type: ADME, cell-free; conditions: read-out: Stability
HL-60 [4] = experiment: Cytotoxicity against human HL60 cells by MTT assay; assay type: functional, cell-based
[5] = molecular target: Muscarinic acetylcholine receptor M3 (Rattus norvegicus, UniProt P08483); experiment: Agonist activity at endothelial M3 receptor in Wistar-Kyoto rat thoracic aortic rings assessed as inhibition of phenylephrine-induced contraction; assay type: functional
Caspase-3 (Mus musculus) [6] = molecular target: T1, Caspase-3 (Mus musculus) (UniProt P70677); conditions: EL4, 10 uM
T1 sequence (whole entry): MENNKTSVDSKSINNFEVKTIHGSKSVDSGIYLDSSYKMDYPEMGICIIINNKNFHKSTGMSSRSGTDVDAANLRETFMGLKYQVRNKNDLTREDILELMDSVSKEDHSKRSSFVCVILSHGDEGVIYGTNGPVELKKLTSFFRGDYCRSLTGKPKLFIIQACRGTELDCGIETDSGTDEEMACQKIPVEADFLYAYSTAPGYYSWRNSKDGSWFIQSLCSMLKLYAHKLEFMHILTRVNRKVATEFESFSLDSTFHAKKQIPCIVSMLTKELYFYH
Description: Activation of procaspase-3 in mouse EL4 cells assessed as increase in cell death by measuring combination index at 10 uM after 24 hrs in presence of 1000 nM doxorubucin by alamar blue assay

Caspase-3 (Mus musculus) [7] = molecular target: T1, Caspase-3 (Mus musculus); conditions: 7.5 uM
Description: Activation of procaspase-3 in mouse B16F10 cells assessed as increase in cell death by measuring combination index at 7.5 uM after 24 hrs in presence of 25 nM doxorubucin by alamar blue assay

Caspase-3 (Mus musculus) [8] = molecular target: T1, Caspase-3 (Mus musculus); conditions: 2.5 uM
Description: Activation of procaspase-3 in mouse K7M2 cells assessed as increase in cell death by measuring combination index at 2.5 uM after 24 hrs in presence of 100 nM doxorubucin by alamar blue assay

Caspase-3 (Mus musculus) [9] = molecular target: T1, Caspase-3 (Mus musculus); conditions: 5 uM
Description: Activation of procaspase-3 in mouse K7M2 cells assessed as increase in cell death by measuring combination index at 5 uM after 24 hrs in presence of 50 nM doxorubucin by alamar blue assay

Caspase-3 (Mus musculus) [10] = molecular target: T1, Caspase-3 (Mus musculus); conditions: EL4, 5 uM
Description: Activation of procaspase-3 in mouse EL4 cells assessed as increase in cell death by measuring combination index at 5 uM after 24 hrs in presence of 100 nM doxorubucin by alamar blue assay

Caspase-3 (Mus musculus) [11] = molecular target: T1, Caspase-3 (Mus musculus); conditions: 2.5 uM; remark: listed apart in the source
Description: Activation of procaspase-3 in mouse K7M2 cells assessed as increase in cell death by measuring combination index at 2.5 uM after 24 hrs in presence of 10 nM doxorubucin by alamar blue assay

Caspase-3 (Mus musculus) [12] = molecular target: T1, Caspase-3 (Mus musculus); conditions: 7.5 uM; remark: listed apart in the source
Description: Activation of procaspase-3 in mouse B16F10 cells assessed as increase in cell death by measuring combination index at 7.5 uM after 24 hrs in presence of 250 nM doxorubucin by alamar blue assay

Caspase-3 (Mus musculus) [13] = molecular target: T1, Caspase-3 (Mus musculus); conditions: 4T1, 2.5 uM
Description: Activation of procaspase-3 in mouse 4T1 cells assessed as increase in cell death by measuring combination index at 2.5 uM after 24 hrs in presence of 25 nM doxorubucin by alamar blue assay

Caspase-3 (Mus musculus) [14] = molecular target: T1, Caspase-3 (Mus musculus); conditions: 7.5 uM; remark: listed apart in the source
Description: Activation of procaspase-3 in mouse 3LL cells assessed as increase in cell death by measuring combination index at 7.5 uM after 24 hrs in presence of 10 nM doxorubucin by alamar blue assay

Caspase-3 (Mus musculus) [15] = molecular target: T1, Caspase-3 (Mus musculus); conditions: 7.5 uM; remark: listed apart in the source
Description: Activation of procaspase-3 in mouse B16F10 cells assessed as increase in cell death by measuring combination index at 7.5 uM after 24 hrs in presence of 10 nM doxorubucin by alamar blue assay

Caspase-3 (Mus musculus) [16] = molecular target: T1, Caspase-3 (Mus musculus); conditions: 5 uM; remark: listed apart in the source
Description: Activation of procaspase-3 in mouse K7M2 cells assessed as increase in cell death by measuring combination index at 5 uM after 24 hrs in presence of 250 nM doxorubucin by alamar blue assay

Caspase-3 (Mus musculus) [17] = molecular target: T1, Caspase-3 (Mus musculus); conditions: EL4, 5 uM; remark: listed apart in the source
Description: Activation of procaspase-3 in mouse EL4 cells assessed as increase in cell death by measuring combination index at 5 uM after 24 hrs in presence of 500 nM doxorubucin by alamar blue assay

Caspase-3 (Mus musculus) [18] = molecular target: T1, Caspase-3 (Mus musculus); conditions: 4T1, 2.5 uM; remark: listed apart in the source
Description: Activation of procaspase-3 in mouse 4T1 cells assessed as increase in cell death by measuring combination index at 2.5 uM after 24 hrs in presence of 50 nM doxorubucin by alamar blue assay

Caspase-3 (Mus musculus) [19] = molecular target: T1, Caspase-3 (Mus musculus); conditions: 15 uM
Description: Activation of procaspase-3 in mouse B16F10 cells assessed as increase in cell death by measuring combination index at 15 uM after 24 hrs in presence of 100 nM doxorubucin by alamar blue assay

Caspase-3 (Mus musculus) [20] = molecular target: T1, Caspase-3 (Mus musculus); conditions: EL4, 10 uM; remark: listed apart in the source
Description: Activation of procaspase-3 in mouse EL4 cells assessed as increase in cell death by measuring combination index at 10 uM after 24 hrs in presence of 100 nM doxorubucin by alamar blue assay

Caspase-3 (Mus musculus) [21] = molecular target: T1, Caspase-3 (Mus musculus); conditions: 2.5 uM; remark: listed apart in the source
Description: Activation of procaspase-3 in mouse K7M2 cells assessed as increase in cell death by measuring combination index at 2.5 uM after 24 hrs in presence of 250 nM doxorubucin by alamar blue assay

Caspase-3 (Mus musculus) [22] = molecular target: T1, Caspase-3 (Mus musculus); conditions: 5 uM; remark: listed apart in the source
Description: Activation of procaspase-3 in mouse K7M2 cells assessed as increase in cell death by measuring combination index at 5 uM after 24 hrs in presence of 100 nM doxorubucin by alamar blue assay

Caspase-3 (Mus musculus) [23] = molecular target: T1, Caspase-3 (Mus musculus); conditions: 5 uM; remark: listed apart in the source
Description: Activation of procaspase-3 in mouse K7M2 cells assessed as increase in cell death by measuring combination index at 5 uM after 24 hrs in presence of 10 nM doxorubucin by alamar blue assay

Caspase-3 (Mus musculus) [24] = molecular target: T1, Caspase-3 (Mus musculus); conditions: 7.5 uM; remark: listed apart in the source
Description: Activation of procaspase-3 in mouse B16F10 cells assessed as increase in cell death by measuring combination index at 7.5 uM after 24 hrs in presence of 50 nM doxorubucin by alamar blue assay

Caspase-3 (Mus musculus) [25] = molecular target: T1, Caspase-3 (Mus musculus); conditions: 2.5 uM; remark: listed apart in the source
Description: Activation of procaspase-3 in mouse 3LL cells assessed as increase in cell death by measuring combination index at 2.5 uM after 24 hrs in presence of 250 nM doxorubucin by alamar blue assay

Caspase-3 (Mus musculus) [26] = molecular target: T1, Caspase-3 (Mus musculus); conditions: 4T1, 5 uM
Description: Activation of procaspase-3 in mouse 4T1 cells assessed as increase in cell death by measuring combination index at 5 uM after 24 hrs in presence of 25 nM doxorubucin by alamar blue assay

Caspase-3 (Mus musculus) [27] = molecular target: T1, Caspase-3 (Mus musculus); conditions: 15 uM; remark: listed apart in the source
Description: Activation of procaspase-3 in mouse B16F10 cells assessed as increase in cell death by measuring combination index at 15 uM after 24 hrs in presence of 25 nM doxorubucin by alamar blue assay

Caspase-3 (Mus musculus) [28] = molecular target: T1, Caspase-3 (Mus musculus); conditions: 2.5 uM; remark: listed apart in the source
Description: Activation of procaspase-3 in mouse 3LL cells assessed as increase in cell death by measuring combination index at 2.5 uM after 24 hrs in presence of 50 nM doxorubucin by alamar blue assay

Caspase-3 (Mus musculus) [29] = molecular target: T1, Caspase-3 (Mus musculus); conditions: 7.5 uM; remark: listed apart in the source
Description: Activation of procaspase-3 in mouse B16F10 cells assessed as increase in cell death by measuring combination index at 7.5 uM after 24 hrs in presence of 100 nM doxorubucin by alamar blue assay

Caspase-3 (Mus musculus) [30] = molecular target: T1, Caspase-3 (Mus musculus); conditions: EL4, 10 uM; remark: listed apart in the source
Description: Activation of procaspase-3 in mouse EL4 cells assessed as increase in cell death by measuring combination index at 10 uM after 24 hrs in presence of 1500 nM doxorubucin by alamar blue assay

Caspase-3 (Mus musculus) [31] = molecular target: T1, Caspase-3 (Mus musculus); conditions: 7.5 uM; remark: listed apart in the source
Description: Activation of procaspase-3 in mouse 3LL cells assessed as increase in cell death by measuring combination index at 7.5 uM after 24 hrs in presence of 25 nM doxorubucin by alamar blue assay

Caspase-3 (Mus musculus) [32] = molecular target: T1, Caspase-3 (Mus musculus); conditions: 4T1, 5 uM; remark: listed apart in the source
Description: Activation of procaspase-3 in mouse 4T1 cells assessed as increase in cell death by measuring combination index at 5 uM after 24 hrs in presence of 10 nM doxorubucin by alamar blue assay

Caspase-3 (Mus musculus) [33] = molecular target: T1, Caspase-3 (Mus musculus); conditions: 15 uM; remark: listed apart in the source
Description: Activation of procaspase-3 in mouse B16F10 cells assessed as increase in cell death by measuring combination index at 15 uM after 24 hrs in presence of 10 nM doxorubucin by alamar blue assay

Caspase-3 (Mus musculus) [34] = molecular target: T1, Caspase-3 (Mus musculus); conditions: 2.5 uM; remark: listed apart in the source
Description: Activation of procaspase-3 in mouse 3LL cells assessed as increase in cell death by measuring combination index at 2.5 uM after 24 hrs in presence of 10 nM doxorubucin by alamar blue assay

Caspase-3 (Mus musculus) [35] = molecular target: T1, Caspase-3 (Mus musculus); conditions: 7.5 uM; remark: listed apart in the source
Description: Activation of procaspase-3 in mouse 3LL cells assessed as increase in cell death by measuring combination index at 7.5 uM after 24 hrs in presence of 50 nM doxorubucin by alamar blue assay

Caspase-3 (Mus musculus) [36] = molecular target: T1, Caspase-3 (Mus musculus); conditions: 7.5 uM; remark: listed apart in the source
Description: Activation of procaspase-3 in mouse 3LL cells assessed as increase in cell death by measuring combination index at 7.5 uM after 24 hrs in presence of 100 nM doxorubucin by alamar blue assay

Caspase-3 (Mus musculus) [37] = molecular target: T1, Caspase-3 (Mus musculus); conditions: 4T1, 2.5 uM; remark: listed apart in the source
Description: Activation of procaspase-3 in mouse 4T1 cells assessed as increase in cell death by measuring combination index at 2.5 uM after 24 hrs in presence of 10 nM doxorubucin by alamar blue assay

Caspase-3 (Mus musculus) [38] = molecular target: T1, Caspase-3 (Mus musculus); conditions: 4T1, 2.5 uM; remark: listed apart in the source
Description: Activation of procaspase-3 in mouse 4T1 cells assessed as increase in cell death by measuring combination index at 2.5 uM after 24 hrs in presence of 250 nM doxorubucin by alamar blue assay

Caspase-3 (Mus musculus) [39] = molecular target: T1, Caspase-3 (Mus musculus); conditions: EL4, 5 uM; remark: listed apart in the source
Description: Activation of procaspase-3 in mouse EL4 cells assessed as increase in cell death by measuring combination index at 5 uM after 24 hrs in presence of 2500 nM doxorubucin by alamar blue assay

Caspase-3 (Mus musculus) [40] = molecular target: T1, Caspase-3 (Mus musculus); conditions: 2.5 uM; remark: listed apart in the source
Description: Activation of procaspase-3 in mouse 3LL cells assessed as increase in cell death by measuring combination index at 2.5 uM after 24 hrs in presence of 25 nM doxorubucin by alamar blue assay

Caspase-3 (Mus musculus) [41] = molecular target: T1, Caspase-3 (Mus musculus); conditions: 2.5 uM; remark: listed apart in the source
Description: Activation of procaspase-3 in mouse K7M2 cells assessed as increase in cell death by measuring combination index at 2.5 uM after 24 hrs in presence of 25 nM doxorubucin by alamar blue assay

Caspase-3 (Mus musculus) [42] = molecular target: T1, Caspase-3 (Mus musculus); conditions: 4T1, 2.5 uM; remark: listed apart in the source
Description: Activation of procaspase-3 in mouse 4T1 cells assessed as increase in cell death by measuring combination index at 2.5 uM after 24 hrs in presence of 100 nM doxorubucin by alamar blue assay

Caspase-3 (Mus musculus) [43] = molecular target: T1, Caspase-3 (Mus musculus); conditions: EL4, 5 uM; remark: listed apart in the source
Description: Activation of procaspase-3 in mouse EL4 cells assessed as increase in cell death by measuring combination index at 5 uM after 24 hrs in presence of 1500 nM doxorubucin by alamar blue assay

Caspase-3 (Mus musculus) [44] = molecular target: T1, Caspase-3 (Mus musculus); conditions: 15 uM; remark: listed apart in the source
Description: Activation of procaspase-3 in mouse B16F10 cells assessed as increase in cell death by measuring combination index at 15 uM after 24 hrs in presence of 50 nM doxorubucin by alamar blue assay

Caspase-3 (Mus musculus) [45] = molecular target: T1, Caspase-3 (Mus musculus); conditions: 5 uM; remark: listed apart in the source
Description: Activation of procaspase-3 in mouse K7M2 cells assessed as increase in cell death by measuring combination index at 5 uM after 24 hrs in presence of 25 nM doxorubucin by alamar blue assay

Caspase-3 (Mus musculus) [46] = molecular target: T1, Caspase-3 (Mus musculus); conditions: EL4, 5 uM; remark: listed apart in the source
Description: Activation of procaspase-3 in mouse EL4 cells assessed as increase in cell death by measuring combination index at 5 uM after 24 hrs in presence of 1000 nM doxorubucin by alamar blue assay

Caspase-3 (Mus musculus) [47] = molecular target: T1, Caspase-3 (Mus musculus); conditions: 4T1, 5 uM; remark: listed apart in the source
Description: Activation of procaspase-3 in mouse 4T1 cells assessed as increase in cell death by measuring combination index at 5 uM after 24 hrs in presence of 100 nM doxorubucin by alamar blue assay

Caspase-3 (Mus musculus) [48] = molecular target: T1, Caspase-3 (Mus musculus); conditions: 7.5 uM; remark: listed apart in the source
Description: Activation of procaspase-3 in mouse 3LL cells assessed as increase in cell death by measuring combination index at 7.5 uM after 24 hrs in presence of 250 nM doxorubucin by alamar blue assay

Caspase-3 (Mus musculus) [49] = molecular target: T1, Caspase-3 (Mus musculus); conditions: 4T1, 5 uM; remark: listed apart in the source
Description: Activation of procaspase-3 in mouse 4T1 cells assessed as increase in cell death by measuring combination index at 5 uM after 24 hrs in presence of 50 nM doxorubucin by alamar blue assay

Caspase-3 (Mus musculus) [50] = molecular target: T1, Caspase-3 (Mus musculus); conditions: EL4, 10 uM; remark: listed apart in the source
Description: Activation of procaspase-3 in mouse EL4 cells assessed as increase in cell death by measuring combination index at 10 uM after 24 hrs in presence of 2500 nM doxorubucin by alamar blue assay

Caspase-3 (Mus musculus) [51] = molecular target: T1, Caspase-3 (Mus musculus); conditions: 2.5 uM; remark: listed apart in the source
Description: Activation of procaspase-3 in mouse K7M2 cells assessed as increase in cell death by measuring combination index at 2.5 uM after 24 hrs in presence of 50 nM doxorubucin by alamar blue assay

Caspase-3 (Mus musculus) [52] = molecular target: T1, Caspase-3 (Mus musculus); conditions: 15 uM; remark: listed apart in the source
Description: Activation of procaspase-3 in mouse B16F10 cells assessed as increase in cell death by measuring combination index at 15 uM after 24 hrs in presence of 250 nM doxorubucin by alamar blue assay

Caspase-3 (Mus musculus) [53] = molecular target: T1, Caspase-3 (Mus musculus); conditions: EL4, 10 uM; remark: listed apart in the source
Description: Activation of procaspase-3 in mouse EL4 cells assessed as increase in cell death by measuring combination index at 10 uM after 24 hrs in presence of 500 nM doxorubucin by alamar blue assay

Caspase-3 (Mus musculus) [54] = molecular target: T1, Caspase-3 (Mus musculus); conditions: 4T1, 5 uM; remark: listed apart in the source
Description: Activation of procaspase-3 in mouse 4T1 cells assessed as increase in cell death by measuring combination index at 5 uM after 24 hrs in presence of 250 nM doxorubucin by alamar blue assay

Caspase-3 (Mus musculus) [55] = molecular target: T1, Caspase-3 (Mus musculus); conditions: 2.5 uM; remark: listed apart in the source
Description: Activation of procaspase-3 in mouse 3LL cells assessed as increase in cell death by measuring combination index at 2.5 uM after 24 hrs in presence of 100 nM doxorubucin by alamar blue assay

Chain of Muscarinic acetylcholine receptor M3 (P08483 whole entry): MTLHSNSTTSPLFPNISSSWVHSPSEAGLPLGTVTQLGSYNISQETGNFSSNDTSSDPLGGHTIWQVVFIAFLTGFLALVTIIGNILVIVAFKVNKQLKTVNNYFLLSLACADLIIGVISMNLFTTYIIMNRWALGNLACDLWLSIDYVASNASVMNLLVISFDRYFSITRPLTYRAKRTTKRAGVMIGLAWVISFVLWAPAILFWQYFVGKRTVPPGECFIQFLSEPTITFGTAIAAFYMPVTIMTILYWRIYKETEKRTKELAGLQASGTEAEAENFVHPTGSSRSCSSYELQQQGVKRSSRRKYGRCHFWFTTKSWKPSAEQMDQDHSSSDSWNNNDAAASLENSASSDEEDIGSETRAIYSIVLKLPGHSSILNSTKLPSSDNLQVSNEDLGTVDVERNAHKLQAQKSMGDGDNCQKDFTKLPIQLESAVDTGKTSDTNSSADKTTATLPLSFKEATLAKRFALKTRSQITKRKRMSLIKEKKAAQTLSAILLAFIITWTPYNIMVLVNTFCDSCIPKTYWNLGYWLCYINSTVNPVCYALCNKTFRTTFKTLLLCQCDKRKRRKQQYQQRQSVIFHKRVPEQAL

O=C(N/N=C/c1cccs1)c1ccc2c(c1)OCO2
IC50 (Thoracic aorta): 74 µM

COc1cc(C(=O)N/N=C/c2cc3ccccc3s2)cc(OC)c1OC
IC50 (HCT-8): 0.005 µM
IC50 (HL-60 [1]): 0.0004 µM
IC50 (OVCAR-8): 0.009 µM

COc1cccc2c1C(=O)c1c(O)c3c(c(O)c1C2=O)C[C@@](O)(/C(CO)=N/NC(=O)CCCCCN1C(=O)C=CC1=O)C[C@@H]3OC1C[C@H](N)[C@H](O)[C@H](C)O1 (stereo partly drawn)
half-life [2]: 20.1 to 21.1 h

O=C(N/N=C/c1ccccc1B(O)O)c1ccncc1
remaining at 10 h, 100 µM [3]: > 93%

COc1cc(C(=O)N(C)/N=C/c2ccccc2)cc(OC)c1OC
IC50 (HL-60 [4]): 0.03 µM

O=C(N/N=C/c1ccsc1)c1ccc2c(c1)OCO2
IC50 [5]: 0.35 µM

C=CCc1cccc(/C=N/NC(=O)CN2CCN(Cc3ccccc3)CC2)c1O
CI (Caspase-3 (Mus musculus) [6]): 0.53 to 37
CI (Caspase-3 (Mus musculus) [7]): 0.76 to 18.2
CI (Caspase-3 (Mus musculus) [8]): 0.66 to 28.1
CI (Caspase-3 (Mus musculus) [9]): 0.73 to 26.6
CI (Caspase-3 (Mus musculus) [10]): 1.38 to 11.7
CI (Caspase-3 (Mus musculus) [11]): 0.97 to 12.8
CI (Caspase-3 (Mus musculus) [12]): 0.42 to 58.2
CI (Caspase-3 (Mus musculus) [13]): 0.79 to 15
CI (Caspase-3 (Mus musculus) [14]): 0.36 to 27.8
CI (Caspase-3 (Mus musculus) [15]): 0.66 to 17.8
CI (Caspase-3 (Mus musculus) [16]): 0.67 to 55.9
CI (Caspase-3 (Mus musculus) [17]): 0.77 to 24
CI (Caspase-3 (Mus musculus) [18]): 0.95 to 15.5
CI (Caspase-3 (Mus musculus) [19]): 0.53 to 40.7
CI (Caspase-3 (Mus musculus) [20]): 0.9 to 18.2
CI (Caspase-3 (Mus musculus) [21]): 0.93 to 39.6
CI (Caspase-3 (Mus musculus) [22]): 0.49 to 42.8
CI (Caspase-3 (Mus musculus) [23]): 0.56 to 26.4
CI (Caspase-3 (Mus musculus) [24]): 0.84 to 20.1
CI (Caspase-3 (Mus musculus) [25]): 0.17 to 79.6
CI (Caspase-3 (Mus musculus) [26]): 0.81 to 23.1
CI (Caspase-3 (Mus musculus) [27]): 0.84 to 23.9
CI (Caspase-3 (Mus musculus) [28]): 0.71 to 28.9
CI (Caspase-3 (Mus musculus) [29]): 0.65 to 31
CI (Caspase-3 (Mus musculus) [30]): 0.37 to 46.7
CI (Caspase-3 (Mus musculus) [31]): 0.41 to 32.3
CI (Caspase-3 (Mus musculus) [32]): 0.74 to 23.3
CI (Caspase-3 (Mus musculus) [33]): 0.83 to 22.5
CI (Caspase-3 (Mus musculus) [34]): 0.54 to 18.3
CI (Caspase-3 (Mus musculus) [35]): 0.44 to 41.3
CI (Caspase-3 (Mus musculus) [36]): 0.32 to 66.8
CI (Caspase-3 (Mus musculus) [37]): 0.89 to 12.2
CI (Caspase-3 (Mus musculus) [38]): 0.47 to 49.7
CI (Caspase-3 (Mus musculus) [39]): 0.3 to 55.6
CI (Caspase-3 (Mus musculus) [40]): 0.72 to 20.3
CI (Caspase-3 (Mus musculus) [41]): 0.84 to 15.2
CI (Caspase-3 (Mus musculus) [42]): 0.84 to 21.5
CI (Caspase-3 (Mus musculus) [43]): 0.63 to 38
CI (Caspase-3 (Mus musculus) [44]): 0.72 to 29
CI (Caspase-3 (Mus musculus) [45]): 0.61 to 26.8
CI (Caspase-3 (Mus musculus) [46]): 0.79 to 30.3
CI (Caspase-3 (Mus musculus) [47]): 0.86 to 28
CI (Caspase-3 (Mus musculus) [48]): 0.28 to 86.3
CI (Caspase-3 (Mus musculus) [49]): 0.86 to 24.1
CI (Caspase-3 (Mus musculus) [50]): 0.21 to 61.4
CI (Caspase-3 (Mus musculus) [51]): 0.88 to 16.7
CI (Caspase-3 (Mus musculus) [52]): 0.39 to 62.2
CI (Caspase-3 (Mus musculus) [53]): 0.69 to 27.7
CI (Caspase-3 (Mus musculus) [54]): 0.42 to 57.2
CI (Caspase-3 (Mus musculus) [55]): 0.48 to 55.7

Reference: ChEMBL document CHEMBL4229438, “N-Acylhydrazones as drugs” (Bioorg Med Chem Lett, 2018)
